Results as given in ChEMBL document CHEMBL1201862, “PubChem BioAssay data set” (2004).
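Where inhibition never reached the appropriate level, the endpoint shown equals the highest concentration tested. Otherwise, values were interpolated linearly from a five-concentration, 48-hour dose response in 96-well plates. GI50 is the concentration that inhibits growth by half.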 The source made the active and inactive calls. No stated cut-off is given here; in the data, active = GI50 up to about 1.1 µM and inactive = higher.

Experiments:
Assay in all cases: NCI tumour cell line growth inhibition, 48 h
A498 = system: A498
EKVX = system: EKVX
HOP-62 = system: HOP-62
HT-29 = system: HT-29
IGROV-1 = system: IGROV-1
MOLT-4 = system: MOLT-4
NCI-H23 = system: NCI-H23
OVCAR-3 = system: OVCAR-3
OVCAR-5 = system: OVCAR-5
OVCAR-8 = system: OVCAR-8
RXF 393 = system: RXF 393
SK-MEL-2 = system: SK-MEL-2
SNB-19 = system: SNB-19
SNB-75 = system: SNB-75
T47D = system: T47D
UACC-257 = system: UACC-257
UACC-62 = system: UACC-62
UO-31 = system: UO-31
HOP-92 = system: HOP-92
MCF7 = system: MCF7

Q: With `N#Cc1[nH]c(=O)n(-c2ccccc2)c1N` as the compound, how does the GI50 (A498) read?
A: Its GI50 is > 10 µM (inactive).

Q: What about the GI50 (EKVX) of the same compound?
A: The GI50 was > 10 µM (inactive).

Q: And the GI50 (HOP-62)?
A: The GI50 was > 10 µM (inactive).

Q: And the GI50 (HT-29)?
A: Its GI50 is > 10 µM (inactive).

Q: What about the GI50 (IGROV-1) of the same compound?
A: Its GI50 is > 10 µM (inactive).

Q: What about the GI50 (MOLT-4) of the same compound?
A: The GI50 was > 10 µM (inactive).

Q: And the GI50 (NCI-H23)?
A: Its GI50 is > 10 µM (inactive).

Q: What about the GI50 (OVCAR-3) of the same compound?
A: Its GI50 is > 10 µM (inactive).

Q: And the GI50 (OVCAR-5)?
A: Its GI50 is 0.141 µM (active).

Q: What about the GI50 (OVCAR-8) of the same compound?
A: Its GI50 is > 10 µM (inactive).

Q: And the GI50 (RXF 393)?
A: Its GI50 is > 10 µM (inactive).

Q: What about the GI50 (SK-MEL-2) of the same compound?
A: The GI50 was > 10 µM (inactive).

Q: And the GI50 (SNB-19)?
A: Its GI50 is > 10 µM (inactive).

Q: What about the GI50 (SNB-75) of the same compound?
A: The GI50 was 6.52 µM (inactive).

Q: And the GI50 (T47D)?
A: The GI50 was > 10 µM (inactive).

Q: And the GI50 (UACC-257)?
A: Its GI50 is > 10 µM (inactive).

Q: What about the GI50 (UACC-62) of the same compound?
A: Its GI50 is > 10 µM (inactive).

Q: What about the GI50 (UO-31) of the same compound?
A: Its GI50 is > 10 µM (inactive).

Q: What does the source list for `Cn1c(=O)c2[nH]c(/N=N\n3ccc4ccccc43)nc2n(C)c1=O`?
A: GI50 (A498): > 100 µM (inactive); GI50 (EKVX): > 100 µM (inactive); GI50 (HOP-62): > 100 µM (inactive); GI50 (HT-29): > 100 µM (inactive); GI50 (MOLT-4): > 100 µM (inactive); GI50 (NCI-H23): > 100 µM (inactive); GI50 (OVCAR-3): > 100 µM (inactive); GI50 (OVCAR-5): > 100 µM (inactive); GI50 (OVCAR-8): > 100 µM (inactive); GI50 (RXF 393): > 100 µM (inactive); GI50 (SNB-19): > 100 µM (inactive); GI50 (SNB-75): > 100 µM (inactive); GI50 (T47D): > 100 µM (inactive); GI50 (UACC-257): > 100 µM (inactive); GI50 (UACC-62): > 100 µM (inactive); GI50 (UO-31): > 100 µM (inactive)

Q: Which GI50 (A498) does the source give for `Cc1nc2ccccc2c(=O)n1NC(=O)c1ccccn1` here?
A: The GI50 was > 100 µM (inactive).

Q: And the GI50 (EKVX)?
A: The GI50 was > 100 µM (inactive).

Q: What about the GI50 (HOP-62) of the same compound?
A: Its GI50 is > 100 µM (inactive).

Q: And the GI50 (HOP-92)?
A: The GI50 was > 100 µM (inactive).

Q: And the GI50 (HT-29)?
A: The GI50 was > 100 µM (inactive).

Q: What about the GI50 (IGROV-1) of the same compound?
A: The GI50 was > 100 µM (inactive).

Q: And the GI50 (MOLT-4)?
A: Its GI50 is > 100 µM (inactive).

Q: What about the GI50 (NCI-H23) of the same compound?
A: The GI50 was > 100 µM (inactive).

Q: What about the GI50 (OVCAR-3) of the same compound?
A: The GI50 was > 100 µM (inactive).

Q: And the GI50 (OVCAR-8)?
A: Its GI50 is > 100 µM (inactive).

Q: And the GI50 (RXF 393)?
A: The GI50 was > 100 µM (inactive).

Q: What about the GI50 (SNB-19) of the same compound?
A: The GI50 was > 100 µM (inactive).

Q: And the GI50 (SNB-75)?
A: The GI50 was 35.7 µM (inactive).

Q: And the GI50 (T47D)?
A: Its GI50 is > 100 µM (inactive).

Q: What about the GI50 (UACC-257) of the same compound?
A: Its GI50 is > 100 µM (inactive).

Q: What about the GI50 (UACC-62) of the same compound?
A: Its GI50 is > 100 µM (inactive).

Q: What about the GI50 (UO-31) of the same compound?
A: The GI50 was > 100 µM (inactive).

Q: Which results are given for `COc1cccc(-c2c(-c3ccccc3)[nH]c(C)c2C(=O)ONC(=O)c2ccccc2)c1`?
A: GI50 (A498): 15 µM (inactive); GI50 (EKVX): 6.78 µM (inactive); GI50 (HOP-62): 2.72 µM (inactive); GI50 (HOP-92): 1.83 µM (inactive); GI50 (HT-29): 10 µM (inactive); GI50 (IGROV-1): 1.66 µM (inactive); GI50 (MCF7): 8.85 µM (inactive); GI50 (MOLT-4): 4.24 µM (inactive); GI50 (NCI-H23): 11.6 µM (inactive); GI50 (OVCAR-3): 6.38 µM (inactive); GI50 (OVCAR-5): 9.06 µM (inactive); GI50 (OVCAR-8): 5.18 µM (inactive); GI50 (RXF 393): 4.35 µM (inactive); GI50 (SK-MEL-2): 10.4 µM (inactive); GI50 (SNB-19): 7.89 µM (inactive); GI50 (SNB-75): 5.86 µM (inactive); GI50 (UACC-257): 13.5 µM (inactive); GI50 (UACC-62): 13.8 µM (inactive); GI50 (UO-31): 0.128 µM (active)

Q: What does the source list for `O=[N+]([O-])c1ccc(-c2nn3c(C45CC6CC(CC(C6)C4)C5)nnc3s2)c(Cl)c1`?
A: GI50 (A498): > 100 µM (inactive); GI50 (EKVX): > 100 µM (inactive); GI50 (HOP-62): > 100 µM (inactive); GI50 (HOP-92): > 100 µM (inactive); GI50 (HT-29): > 100 µM (inactive); GI50 (IGROV-1): > 100 µM (inactive); GI50 (MOLT-4): > 100 µM (inactive); GI50 (NCI-H23): > 100 µM (inactive); GI50 (OVCAR-3): > 100 µM (inactive); GI50 (OVCAR-5): > 100 µM (inactive); GI50 (OVCAR-8): > 100 µM (inactive); GI50 (RXF 393): > 100 µM (inactive); GI50 (SK-MEL-2): > 100 µM (inactive); GI50 (SNB-19): > 100 µM (inactive); GI50 (SNB-75): > 100 µM (inactive); GI50 (T47D): > 100 µM (inactive); GI50 (UACC-62): > 100 µM (inactive); GI50 (UO-31): > 100 µM (inactive)

Q: How did the GI50 (A498) turn out when `Cc1ccc(S(=O)(=O)CC2(Br)CCc3ccccc3C2=O)cc1` (configuration not stated) was run?
A: Its GI50 is 25.8 µM (inactive).

Q: And the GI50 (EKVX)?
A: The GI50 was 43.1 µM (inactive).

Q: What about the GI50 (HOP-62) of the same compound?
A: The GI50 was 39.4 µM (inactive).

Q: And the GI50 (HOP-92)?
A: Its GI50 is 34.4 µM (inactive).

Q: What about the GI50 (HT-29) of the same compound?
A: Its GI50 is 20.8 µM (inactive).

Q: What about the GI50 (IGROV-1) of the same compound?
A: Its GI50 is 17.5 µM (inactive).

Q: And the GI50 (MCF7)?
A: The GI50 was 24.5 µM (inactive).

Q: What about the GI50 (MOLT-4) of the same compound?
A: The GI50 was 2.86 µM (inactive).

Q: What about the GI50 (NCI-H23) of the same compound?
A: Its GI50 is 33.6 µM (inactive).

Q: And the GI50 (OVCAR-3)?
A: The GI50 was 45.3 µM (inactive).

Q: What about the GI50 (OVCAR-5) of the same compound?
A: Its GI50 is 51.1 µM (inactive).

Q: What about the GI50 (OVCAR-8) of the same compound?
A: The GI50 was 27.4 µM (inactive).

Q: What about the GI50 (RXF 393) of the same compound?
A: Its GI50 is 18.1 µM (inactive).

Q: And the GI50 (SK-MEL-2)?
A: Its GI50 is 21.4 µM (inactive).

Q: And the GI50 (SNB-19)?
A: The GI50 was 41.9 µM (inactive).

Q: What about the GI50 (SNB-75) of the same compound?
A: The GI50 was 29.9 µM (inactive).

Q: What about the GI50 (UACC-257) of the same compound?
A: Its GI50 is 22.3 µM (inactive).

Q: And the GI50 (UACC-62)?
A: Its GI50 is 23 µM (inactive).

Q: What about the GI50 (UO-31) of the same compound?
A: Its GI50 is 14.8 µM (inactive).
